Source: article PMC13499021, “Cellular Assays for Dynamic Quantification of Deubiquitinase Activity and Inhibition” (Journal of molecular biology, 2023)
“And” between values parts separate entries of the source, which are not always exact repeats. Equal values may be shown once. Read-outs that look alike come from different tables or passages of the source. Where a SMILES comes first, the peptide text is derived from it. The star is where a group is joined. Cbz = O=C(OCc1ccccc1)*

Experiments:
[1] = target: R-EGFP reporter (enhanced green fluorescent protein with an N-terminal arginine, made as the Ub-R-EGFP fusion)
GFPNb^R35Q-USP7 [2] = target: T1, GFPNb^R35Q-USP7 (Homo sapiens, UniProt Q93009); assay type: cell-based
GFPNb^R35Q-USP7 [3] = target: T1, GFPNb^R35Q-USP7; assay type: cell-based; remark: listed apart in the source
GFPNb^WT-USP7 = assay type: cell-based
GFPNb^E103Q-USP7 = assay type: cell-based
purified USP7 = purified USP7 and Ub-AMC substrate; reported; cited from earlier work
proteasome = assay type: cell-based
SARS2-PL^pro = assay type: cell-based
[4] = test system: homologous enzyme (PL^pro) from NL63; conditions: cited from earlier work
[5] = test system: homologous enzyme (PL^pro) from MERS; conditions: cited from earlier work
SARS2 PL^pro = conditions: read-out: inhibitory concentrations (IC50); cited from earlier work
GFPNb^R35Q-USP7 [6] = assay type: cell-based
USP7 = conditions: cited from earlier work
GFPNb^R35Q-USP7 [7] = assay type: cell-based; conditions: read-out: cellular IC50
MM.1S cells = conditions: read-out: IC50, block of proliferation; cited from earlier work
GFPNb^R35Q-USP28 = assay type: cell-based
KF LSCC cells = test system: KF LSCC cells; set-up: method as in PMID 34636321; conditions: cited from earlier work
[8] = 10 μM compound for 16 h, USP7 fused to WT GFP nanobody

T1 sequence (Q93009 with tags, fused parts or gaps limits assumed, stated change not applied): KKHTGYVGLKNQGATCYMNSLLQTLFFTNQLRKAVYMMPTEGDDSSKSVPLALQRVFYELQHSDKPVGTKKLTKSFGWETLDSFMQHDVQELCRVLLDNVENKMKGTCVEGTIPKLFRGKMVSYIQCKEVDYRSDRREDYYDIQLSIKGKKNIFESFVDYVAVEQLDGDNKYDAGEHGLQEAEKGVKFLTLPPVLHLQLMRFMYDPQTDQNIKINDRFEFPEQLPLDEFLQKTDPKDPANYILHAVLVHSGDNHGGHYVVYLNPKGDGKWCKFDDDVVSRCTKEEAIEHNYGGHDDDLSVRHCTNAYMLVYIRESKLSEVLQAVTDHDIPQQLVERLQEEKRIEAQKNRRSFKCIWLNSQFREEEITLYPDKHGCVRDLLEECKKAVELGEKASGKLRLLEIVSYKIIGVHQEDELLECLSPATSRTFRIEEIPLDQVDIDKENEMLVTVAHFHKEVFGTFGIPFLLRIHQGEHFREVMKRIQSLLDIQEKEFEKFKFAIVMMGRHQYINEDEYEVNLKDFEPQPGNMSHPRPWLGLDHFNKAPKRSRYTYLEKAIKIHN

GFPNb E103Q-mCherry (VHH)
relative stabilization of EGFP in 293T-Ub-R-C3 cells (flow cytometry), WT nanobody-mCherry normalized to 1 (fold decrease against the WT nanobody) [1]: 100

XL177A
change in EGFP levels (GFPNb^R35Q-USP7 [2]): substantial decrease | IC50 (GFPNb^R35Q-USP7 [3]; read-out: cellular IC50): 0.192 µM | change in EGFP fluorescence levels (GFPNb^WT-USP7; [8]): weak (if any) decrease | change in EGFP levels (GFPNb^E103Q-USP7): substantial decrease | IC50 (purified USP7): 0.00034 µM

CC(C)C[C@@H](C=O)NC(=O)[C@H](CC(C)C)NC(=O)[C@H](CC(C)C)NC(=O)OCc1ccccc1 [MG132] (Cbz-Leu-Leu-Leu-aldehyde)
elevation of EGFP level over baseline (proteasome): over 50 fold

GFPNb E103Q-mCherry-USP7 fusion
relative USP7 activity (EGFP stabilization, flow cytometry) in transfected 293T-Ub-R-C3 cells, against the WT nanobody fusion (fold less than the WT Nb fusion) [1]: 3

GRL0617
start of time dependent decrease in EGFP signal post-treatment (SARS2-PL^pro): 2 h | activity against homologous enzyme [4]: inactive | activity against homologous enzyme [5]: inactive | IC50 (SARS2 PL^pro): 2.1 to 2.3 µM

CC(=O)c1cc([N+](=O)[O-])c(Sc2ccc(F)cc2F)s1 [P22077]
change in EGFP fluorescence levels (GFPNb^WT-USP7; [8]): no inhibitory activity | change in EGFP levels (GFPNb^E103Q-USP7): no inhibitory activity

GFPNb R35Q-mCherry-USP7 fusion
relative USP7 activity (EGFP stabilization, flow cytometry) in transfected 293T-Ub-R-C3 cells, against the WT nanobody fusion (fold less than the WT Nb fusion) [1]: 2

GFPNb R35Q-mCherry (VHH)
relative stabilization of EGFP in 293T-Ub-R-C3 cells (flow cytometry), WT nanobody-mCherry normalized to 1 (fold decrease against the WT nanobody) [1]: 50

O=C(C[C@@H](C(F)F)n1ccc(F)n1)N1CCC(O)(Cn2cnc3c(cnn3-c3ccc(F)cc3)c2=O)CC1 [FT671]
change in EGFP levels (GFPNb^R35Q-USP7 [6]): substantial decrease | IC50 (USP7): 0.052 µM | IC50 (GFPNb^R35Q-USP7 [7]): 0.014 µM | change in EGFP fluorescence levels (GFPNb^WT-USP7): weak (if any) decrease | change in EGFP levels (GFPNb^E103Q-USP7): substantial decrease | IC50 (MM.1S cells): 0.033 µM

Cc1ccc2c(N)c(C(=O)N[C@H]3CCc4cc(N5CC6CCC(C5)N6)ccc4C3)sc2n1 [FT206]
dose-dependence of EGFP degradation rate (GFPNb^R35Q-USP28): little dose-dependence | inhibition (GFPNb^R35Q-USP28): potent inhibition | rate of degradation of the EGFP reporter (GFPNb^R35Q-USP28): fastest degradation | IC50 (GFPNb^R35Q-USP28; read-out: cellular IC50): 0.104 µM and ~0.104 µM | inhibition (GFPNb^R35Q-USP7 [3]): no inhibition | proliferation of KF LSCC cells (KF LSCC cells): inhibit proliferation
